# System: Rattus norvegicus
# Settings: short-term, duration: 28 days, oral, gavage, Sprague-Dawley
smiles,measurement,setting,value
O=C(O)C(F)(F)C(F)(F)C(F)(F)C(F)(F)C(F)(F)C(F)(F)C(F)(F)C(F)(F)F [Perfluorononanoic acid],LOEL,"F, Clinical chemistry_Alanine aminotransferase",3.12 mg/kg-day
same,LOEL,"F, Clinical chemistry_Albumin",1.56 mg/kg-day
same,LOEL,"F, Clinical chemistry_Albumin/globulin ratio",1.56 mg/kg-day
same,LOEL,"F, Clinical chemistry_Alkaline phosphatase",3.12 mg/kg-day
same,NOEL,"F, Clinical chemistry_Aspartate aminotransferase",25 mg/kg-day
same,NOEL,"F, Clinical chemistry_Cholesterol",25 mg/kg-day
same,NOEL,"F, Clinical chemistry_Creatinine kinase",25 mg/kg-day
same,LOEL,"F, Clinical chemistry_Direct bilirubin",6.25 mg/kg-day
same,LOEL,"F, Clinical chemistry_Free thyroxine",3.12 mg/kg-day
same,LOEL,"F, Clinical chemistry_Globulin",1.56 mg/kg-day
same,NOEL,"F, Clinical chemistry_Indirect bilirubin",25 mg/kg-day
same,LOEL,"F, Clinical chemistry_Sorbitol dehydrogenase",1.56 mg/kg-day
same,LOEL,"F, Clinical chemistry_Testosterone",1.56 mg/kg-day
same,NOEL,"F, Clinical chemistry_Thyroid stimulating hormone",25 mg/kg-day
same,LOEL,"F, Clinical chemistry_Total bile acids",3.12 mg/kg-day
same,NOEL,"F, Clinical chemistry_Total bilirubin",25 mg/kg-day
same,LOEL,"F, Clinical chemistry_Total protein",1.56 mg/kg-day
same,LOEL,"F, Clinical chemistry_Total thyroxine",3.12 mg/kg-day
same,NOEL,"F, Clinical chemistry_Total triiodothyronine",25 mg/kg-day
same,NOEL,"F, Clinical chemistry_Triglycerides",25 mg/kg-day
same,LOEL,"F, Gene expression_Acox1",1.56 mg/kg-day
same,LOEL,"F, Gene expression_Cyp2b1",1.56 mg/kg-day
same,LOEL,"F, Gene expression_Cyp2b2",1.56 mg/kg-day
same,LOEL,"F, Gene expression_Cyp4a1",1.56 mg/kg-day
same,NOEL,"F, Hematology_Erythrocytes",25 mg/kg-day
same,NOEL,"F, Hematology_Hematocrit",25 mg/kg-day
same,NOEL,"F, Hematology_Hemoglobin",25 mg/kg-day
same,NOEL,"F, Hematology_Mean corpuscular hemoglobin concentration",25 mg/kg-day
same,NOEL,"F, Hematology_Mean corpuscular volume",25 mg/kg-day
same,NOEL,"F, Hematology_Platelets",25 mg/kg-day
same,NOEL,"F, Hematology_Reticulocytes",25 mg/kg-day
same,LOEL,"F, Nonneoplastic effects_Bone marrow - Hypocellularity",12.5 mg/kg-day
same,LOEL,"F, Nonneoplastic effects_Forestomach - Epithelium, hyperplasia",12.5 mg/kg-day
same,NOEL,"F, Nonneoplastic effects_Kidney - Nephropathy, chronic progressive",25 mg/kg-day
same,LOEL,"F, Nonneoplastic effects_Liver - Hepatocyte, Necrosis",12.5 mg/kg-day
same,LOEL,"F, Nonneoplastic effects_Liver - Hepatocyte, cytoplasmic alteration",1.56 mg/kg-day
same,LOEL,"F, Nonneoplastic effects_Liver - Hepatocyte, hypertrophy",6.25 mg/kg-day
same,NOEL,"F, Nonneoplastic effects_Liver - Hepatocyte, vacuolization cytoplasmic",25 mg/kg-day
same,LOEL,"F, Nonneoplastic effects_Lymph nodes - Mandibular, atrophy",12.5 mg/kg-day
same,LOEL,"F, Nonneoplastic effects_Lymph nodes - Mesenteric, atrophy",12.5 mg/kg-day
same,LOEL,"F, Nonneoplastic effects_Nose - Olfactory epithelium, degeneration",25 mg/kg-day
same,NOEL,"F, Nonneoplastic effects_Nose - Olfactory epithelium, hyperplasia",25 mg/kg-day
same,NOEL,"F, Nonneoplastic effects_Nose - Olfactory epithelium, inflammation, suppurative",25 mg/kg-day
same,NOEL,"F, Nonneoplastic effects_Nose - Respiratory epithelium, hyperplasia",25 mg/kg-day
same,NOEL,"F, Nonneoplastic effects_Nose - Respiratory epithelium, inflammation, chronic active",25 mg/kg-day
same,LOEL,"F, Nonneoplastic effects_Spleen - Atrophy",12.5 mg/kg-day
same,NOEL,"F, Nonneoplastic effects_Spleen - Extramedullary hematopoiesis, increased",25 mg/kg-day
same,LOEL,"F, Nonneoplastic effects_Thymus - Atrophy",12.5 mg/kg-day
same,NOEL,"F, Nonneoplastic effects_Thymus - Lymphocyte, apoptosis",25 mg/kg-day
same,NOEL,"F, Nonneoplastic effects_Thyroid gland - Follicular cell hypertrophy",25 mg/kg-day
same,LOEL,"F, Organ weights_Liver - Absolute",1.56 mg/kg-day
same,LOEL,"F, Organ weights_Liver - Relative",1.56 mg/kg-day
same,NOEL,"F, Organ weights_R. adrenal gland - Absolute",25 mg/kg-day
same,NOEL,"F, Organ weights_R. adrenal gland - Relative",25 mg/kg-day
same,LOEL,"F, Organ weights_R. kidney - Absolute",1.56 mg/kg-day
same,LOEL,"F, Organ weights_R. kidney - Relative",1.56 mg/kg-day
same,LOEL,"F, Organ weights_Spleen - Absolute",3.12 mg/kg-day
same,LOEL,"F, Organ weights_Spleen - Relative",6.25 mg/kg-day
same,NOEL,"F, Organ weights_Thymus - Absolute",25 mg/kg-day
same,NOEL,"F, Organ weights_Thymus - Relative",25 mg/kg-day
same,NOEL,"F, Organ weights_Thyroid gland - Absolute",25 mg/kg-day
same,NOEL,"F, Organ weights_Thyroid gland - Relative",25 mg/kg-day
same,LOEL,"F, body weight",6.25 mg/kg-day
same,LOEL,"M, Clinical chemistry_Alanine aminotransferase",1.25 mg/kg-day
same,LOEL,"M, Clinical chemistry_Albumin",1.25 mg/kg-day
same,LOEL,"M, Clinical chemistry_Albumin/globulin ratio",0.625 mg/kg-day
same,LOEL,"M, Clinical chemistry_Alkaline phosphatase",1.25 mg/kg-day
same,LOEL,"M, Clinical chemistry_Aspartate aminotransferase",1.25 mg/kg-day
same,LOEL,"M, Clinical chemistry_Cholesterol",0.625 mg/kg-day
same,NOEL,"M, Clinical chemistry_Creatinine kinase",10 mg/kg-day
same,LOEL,"M, Clinical chemistry_Direct bilirubin",1.25 mg/kg-day
same,LOEL,"M, Clinical chemistry_Free thyroxine",0.625 mg/kg-day
same,LOEL,"M, Clinical chemistry_Globulin",0.625 mg/kg-day
same,LOEL,"M, Clinical chemistry_Indirect bilirubin",1.25 mg/kg-day
same,LOEL,"M, Clinical chemistry_Sorbitol dehydrogenase",1.25 mg/kg-day
same,LOEL,"M, Clinical chemistry_Testosterone",2.5 mg/kg-day
same,LOEL,"M, Clinical chemistry_Thyroid stimulating hormone",2.5 mg/kg-day
same,LOEL,"M, Clinical chemistry_Total bile acids",0.625 mg/kg-day
same,LOEL,"M, Clinical chemistry_Total bilirubin",1.25 mg/kg-day
same,LOEL,"M, Clinical chemistry_Total protein",0.625 mg/kg-day
same,LOEL,"M, Clinical chemistry_Total thyroxine",0.625 mg/kg-day
same,LOEL,"M, Clinical chemistry_Total triiodothyronine",2.5 mg/kg-day
same,LOEL,"M, Clinical chemistry_Triglycerides",0.625 mg/kg-day
same,LOEL,"M, Gene expression_Acox1",0.625 mg/kg-day
same,LOEL,"M, Gene expression_Acyl-CoA oxidase",0.625 mg/kg-day
same,LOEL,"M, Gene expression_Cyp2b1",0.625 mg/kg-day

# Source: EPA's ToxValDB 9.5
